Patent US4677107A, “Anti-peptic ulcer agent” (Dainippon Pharmaceutical Co., Ltd., priority 1983, dated 1987)
Where a name gives a salt, the structure may show the parent alone. Read-outs that look alike come from different tables or passages of the source.

How the values were obtained:
[1] = U.S. Pat. No. 4,237,135 and U.K. Pat. No. 2,017,698; cited from earlier work
[2] = U.S. Pat. No. 3,542,785 and 3,668,207; cited from earlier work
[3] = U.S. Pat. No. 3,542,785 and 3,668,207; cited from earlier work; remark: listed apart in the source
[4] = tested on: ulceration induced by exposure to stress (restraint and water immersion); assay: Effect on the ulceration induced by exposure to stress (restraint and water immersion); assay type: in vivo, male Wistar strain rats; conditions: for ED50: Rattus norvegicus, po, 30 minutes before immersion, rats, read-out: ED50 (dose required for 50% inhibition of the ulcer index)
Method: [I] Effect on the ulceration induced by exposure to stress (restraint and water immersion): Male Wistar strain rats (weighing, about 200 g) were placed in a stress cage which served to immobilize the animals therein and then immersed in a water bath of 23° C. to the height of xiphoid of the animals according to the method of Takagi et al. [cf. Takagi, K. and Okabe, S., Japan. J. Pharmacol., 18, 9 (1968)]. After 20 hours, the animals were sacrificed and the stomach was removed. The stomach was inflated with 13 ml of saline and placed in 5% formalin solution for 5 minutes. After washing with saline, the stomach was cut open along the greater curvature and the length (mm) of each lesion in the glandular portion was measured using a dissecting microscope (×12). The sum of the length (mm) of each lesions in a stomach was indicated as an ulcer index. In case of reference experiment using butylscopolamine bromide, a photograph of the mucosal surface of stomach was taken after the stomach was treated in the same manner as described above. The photograph was magnified by nine times, and the sum of the area (mm^2) of each lesions in a stomach was indicated as an ulcer index. The ulcer index in drug treated groups was compared with that in control group, and thereby, inhibitory percentage was calculated and then ED50 value, i.e., the dose required for 50% inhibition of the ulcer index, was determined by the usual graphic method. Drugs to be tested were suspended in 0.5% tragacanth solution and administered orally 30 minutes before the immersion. In the control group, a vehicle (0.5% tragacanth solution) was administered.

[5] = tested on: ulceration induced by pylorus-ligation; assay: Effect on the ulceration induced by pylorus-ligation in rats; assay type: in vivo, male Wistar strain rats; conditions: for ED50: Rattus norvegicus, po, 30 minutes before ligation, rats, 18 hours, ulcer index 0 to 5, read-out: ED50 (dose required for 50% inhibition of ulcer index)
Method: [II] Effect on the ulceration induced by pylorus-ligation in rats: Male Wistar strain rats (weighing about 190 g) were fasted for 48 hours before experiment. The pylorus of each rat was ligated under ether anaesthesia according to the method of Shay et al. [cf. Shay, H., et al., Gastroenterology, 5, 43-61 (1945)]. Each of the animals was then allowed to stand abstained from food and water in a cage. After 18 hours, the animals were sacrificed under ether anaesthesia, and the stomachs were removed and cut open along the greater curvature. […] 4: marked ulcers more than two 5: perforated ulcer The ulcer index in drug treated groups was compared to that in the control group, and thereby, the inhibitory percentage was calculated and then ED50, i.e. the dose required for 50% inhibition of ulcer index, was determined by the usual graphic method. Drugs to be tested were suspended in 0.5% tragacanth solution and administered 30 minutes before the ligation. In the control group, a vehicle (0.5% tragacanth solution) was administered.

gastric secretion = assay: Effect on gastric secretion in rats (pylorus ligation, total acid content); assay type: in vivo, male Wistar strain rats; conditions: for ED50: Rattus norvegicus, po, 30 minutes before ligation, rats, 4 hours after ligation, read-out: ED50 (dose required for 50% reduction of acid content)
Method: [III] Effect on gastric secretion in rats: Male Wistar strain rats (weighing, about 200 g) were fasted for 24 hours before experiment. The pylorus was ligated under ether anaesthesia. Four hours after the ligation, the stomach was removed under ether anaesthesia. The gastric content was collected and centrifuged, and the secretory volume, pH and acid content of the supernatant were measured. The acid content was measured by titrating to pH 7.0 with 0.02N NaOH using pH meter (Hitachi Horiba, M-5). The total acid content of the drug treated groups was compared with that of the control group, and thereby, the reduction percentage of acid content was calculated and then ED50, i.e. the dose required for 50% reduction of acid content, was determined by the usual graphic method. Drugs to be tested were suspended in 0.5% tragacanth solution and administered orally 30 minutes before the ligation. In the control group, a vehicle (0.5% tragacanth solution) was administered.

pupil size = assay: Mydriatic action in rats; assay type: in vivo, male Wistar strain rats; conditions: for Percent mydriasis: one hour after administration, 3 mm dilation = 100 percent
From the text: [IV] Mydriatic action in rats:
Male Wistar strain rats (weighing, 150-200 g) were used. Pupil size of the animals was twice measured microscopically just before and one hour after administration of drugs at a distance of 30 cm from the source of a constant light (30 W fluorescent light) according to the method of Pulewka [cf. Arch. exp. Path. U. Pharmakol., 168, 307 (1932)]. Based on the change between the first measured pupil size and the second measured pupil size, mydriasis percentage was calculated provided that mydriasis percentage is supposed to be 100 percent in case of 3 mm dilation of pupil size in diameter. Drugs to be tested were suspended in 0.5% tragacanth solution and administered. In the control group, a vehicle (0.5% tragacanth solution) was administered.

[6] = tested on: contraction of ileum preparation by acetylcholine; assay: Anti-acetylcholine action (isolated ileum contraction by acetylcholine); set-up: species or system male Hartley guinea-pigs; conditions: for IC50 (50% inhibition concentration), contraction of ileum by acetylcholine: acetylcholine chloride 2×10^-8 g/ml, drug added 2 minutes prior, 35° C.; for anti-acetylcholine activity (in words): isolated guinea-pig ileum
Method: [IV] Anti-acetylcholine action:
A piece of ileum, taken from male Hartley guinea-pigs (weighing 250-350 g) was suspended longitudinally in a bath containing Tyrode solution (20 ml) under constant bubbling of 95% oxygen and 5% carbon dioxide gas at 35° C. The contraction of the preparation by acetylcholine chloride (2×10^-8 g/ml) was recorded on an oscillograph (Nihonkoden, RJG-3004) via an isotonic transducer (Nihonkoden, TD-111S). Drugs to be tested (Compound A and Compound C) were added to the bath 2 minutes prior to the application of acetylcholine chloride. The average percent inhibition of the test Compound A against the contraction of ileum preparation by acetylcholine is shown in the accompanying FIG. 1. Based on the average percent inhibition on the graph, IC50, i.e. 50% inhibition concentration of the test compound, was calculated. […] IC50 of Compound C was calculated likewise. As a result, it was 1.9× 10^-6 g/ml.

[7] = ulcer index = sum of length (mm) of lesions
[8] = 1 mg/kg p.o., ulcer index = sum of length (mm) of lesions
[9] = 2 mg/kg p.o., ulcer index = sum of length (mm) of lesions
[10] = 5 mg/kg p.o., ulcer index = sum of length (mm) of lesions

Structure (SMILES)	anti-inflammatory activity [2]	diuretic activity [3]	Ulcer index Inhibitory % ([5]; 50 mg/kg p.o.) [%]	Ulcer index Inhibitory % ([5]; 100 mg/kg p.o.) [%]	Ulcer index Inhibitory % ([5]; 200 mg/kg p.o.) [%]	ED50 [5] [mg/kg]	Total acid content Reduction % (gastric secretion; 20 mg/kg p.o.) [%]	Total acid content Reduction % (gastric secretion; 50 mg/kg p.o.) [%]	ED50 (gastric secretion) [mg/kg]	ED50 [4, 7] [mg/kg]	Ulcer index Inhibitory % [4, 8] [%]	Ulcer index Inhibitory % [4, 9] [%]	Ulcer index Inhibitory % [4, 10] [%]	Ulcer index Inhibitory % ([5]; 5 mg/kg p.o.) [%]	Ulcer index Inhibitory % ([5]; 10 mg/kg p.o.) [%]	Ulcer index Inhibitory % ([5]; 20 mg/kg p.o.) [%]	Total acid content Reduction % (gastric secretion; 1 mg/kg p.o.) [%]	Total acid content Reduction % (gastric secretion; 2 mg/kg p.o.) [%]	Total acid content Reduction % (gastric secretion; 5 mg/kg p.o.) [%]	IC50 (50% inhibition concentration), contraction of ileum by acetylcholine [6] [µg/mL]	other results
CN1CCN(c2cc(-c3ccccc3)c3cc(Cl)ccc3n2)CC1 [6-chloro-2-(4-methyl-1-piperazinyl)-4-phenylquinoline]	have anti-inflammatory activity	diuretic activity	–	–	–	–	–	–	–	–	–	–	–	–	–	–	–	–	–	–	anti-reserpine activity [1]: weak anti-reserpine activity
Clc1ccc2nc(N3CCN(c4ccccc4)CC3)cc(-c3ccccc3)c2c1 [6-chloro-2-(4-phenyl-1-piperazinyl)-4-phenylquinoline]	have anti-inflammatory activity	diuretic activity	–	–	–	–	–	–	–	–	–	–	–	–	–	–	–	–	–	–	–
CCCC[N+]1(C)[C@@H]2C[C@@H](OC(=O)[C@H](CO)c3ccccc3)C[C@H]1[C@@H]1O[C@@H]12 (stereo partly shown) [Butylscopolamine bromide, butylscopolamine bromide, reference compound]	–	–	19.0	28.6	38.1	> 200	44.3	71.0	25	–	–	–	–	–	–	–	–	–	–	–	Ulcer index Inhibitory % ([4]; 20 mg/kg p.o., ulcer index = sum of area (mm^2) of lesions): -2.1%; Ulcer index Inhibitory % ([4]; 50 mg/kg p.o., ulcer index = sum of area (mm^2) of lesions): 44.1%; Ulcer index Inhibitory % ([4]; 100 mg/kg p.o., ulcer index = sum of area (mm^2) of lesions): 97.8%; ED50 ([4]; ulcer index = sum of area (mm^2) of lesions from photograph): 49.1 mg/kg; Total acid content Reduction % (gastric secretion; 100 mg/kg p.o.): 83.7%
CN/C(=N/CCSCc1nc[nH]c1C)NC#N [Cimetidine, reference compound]	–	–	0	9.1	42.4	253	44.0	71.6	26.8	26.9	–	–	–	–	–	–	–	–	–	–	Ulcer index Inhibitory % ([4]; 20 mg/kg p.o., ulcer index = sum of length (mm) of lesions): 29.1%; Ulcer index Inhibitory % ([4]; 50 mg/kg p.o., ulcer index = sum of length (mm) of lesions): 75.0%; Ulcer index Inhibitory % ([4]; 100 mg/kg p.o., ulcer index = sum of length (mm) of lesions): 77.0%; Ulcer index Inhibitory % ([5]; 500 mg/kg p.o.): 75.8%; Total acid content Reduction % (gastric secretion; 10 mg/kg p.o.): 9.4%
CCN1CCN(c2cc(-c3ccccc3)c3ccccc3n2)CC1 [Compound A, 2-(4-ethyl-1-piperazinyl)-4-phenylquinolinedihydrochloride]	–	–	76.5	–	–	16	–	–	1.8	2.8	15.5	40.8	85.2	35.3	41.2	52.9	34.7	54.5	73.1	1.2	Ulcer index Inhibitory % ([4]; 10 mg/kg p.o., ulcer index = sum of length (mm) of lesions): 88.4%; Total acid content Reduction % (gastric secretion; 0.5 mg/kg p.o.): 18.2%; Percent mydriasis (pupil size; 5 mg/kg p.o.): 4.0%; Percent mydriasis (pupil size; 10 mg/kg p.o.): 2.7%; Percent mydriasis (pupil size; 20 mg/kg p.o.): 2.7%; Percent mydriasis (pupil size; 50 mg/kg p.o.): 1.3%; Percent mydriasis (pupil size; 100 mg/kg p.o.): 2.6%; mydriatic action (in words) (pupil size; rats, up to 100 mg/kg): did entirely not show any mydriatic action even in a dose of 100 mg/kg; anti-acetylcholine activity (in words) [6]: extremely weak
O=C(O)/C=C\C(=O)O.c1ccc(-c2cc(N3CCNCC3)nc3ccccc23)cc1 [Compound C, 2-(1-piperazinyl)-4-phenylquinoline monomaleate]	–	–	75.0	–	–	14	–	–	1.1	0.45	55.9	73.6	71.8	37.5	43.8	56.3	45.3	71.3	86.3	1.9	Ulcer index Inhibitory % ([4]; 0.2 mg/kg p.o., ulcer index = sum of length (mm) of lesions): 45.8%; Ulcer index Inhibitory % ([4]; 0.5 mg/kg p.o., ulcer index = sum of length (mm) of lesions): 55.5%; anti-acetylcholine activity (in words) [6]: extremely weak
